Experimental data published in patent publication US4853407A, “Aminoethylcysteine derivatives” (Sanraku Incorporated, priority 1987, dated 1989).

Tests used:
dipeptidase [1] = biological target: T1, dipeptidase (Rattus norvegicus, UniProt P31430); assay: In vitro test on dipeptidase-inhibiting activity (antibiotic PS-5 as substrate, absorbance at 301 nm); format: biochemical; settings: partially purified dipeptidase from rat kidney; substrate antibiotic PS-5, pH 8.0, 37° C., 5 minutes; read-out: ID50 (the source's name)
T1 construct: to obtain a partially purified sample of dipeptidase; from tissue; host or cells: rat kidney, microsome fraction, trypsin-treated, Triton X-100 solubilised, partially purified
Method: Rats were sacrificed by decapitation to bleed, and about 12 g of fresh kidneys were collected. And a microsome fraction was obtained by subcellular fractionating method according to fractional centrifugation of Hogboom (Methods in Enzymology, vol. 1, pages 16-19, Academic Press, New York, 1955). This microsome fraction was treated with 400 μg/ml of trypsin at 0° C. for 16 hours, and then subjected to fractional ultracentrifugation at 10^5 G at 0° C. for 60 minutes.
The resultant precipitate was solubilized by 20 ml of Tris-HCl buffer (20 mM, pH 7.6) containing a surfactant (0.4% Triton® X-100), and subjected to fractional ultracentrifugation at 10^5 G at 0° C. for 60 minutes. […]
The enzyme obtained above ([…]) was preincubated together with 30 μl of an inhibiting agent solution in a cuvette at 37° C. for 5 minutes. […] The reaction was carried out within a cuvette of HITACHI spectrophotometer equipped with a constant temperature device (37° C.), and decreases of absorbance at a wavelength of 301 nm for 5 minutes were determined by a recorder.
By the values obtained above and values from control containing no inhibiting agent, the percent inhibition and ID50 at a predetermined inhibition concentration were determined.

dipeptidase [2] = assay: In vivo test on dipeptidase-inhibiting activity (recovery of co-administered antibiotic 88617 in urine); set-up: species or system ddY mice; settings: 6 hours, average of five mice
Method: (§1) Five weeks aged ddY mice were grouped five mice for one group, and aqueous solutions containing 80 or 250 mg/ml concentration of the dipeptidase-inhibiting agent of this invention (adjusted with 1N NaOH to pH 7.5) were intravenously administered to the mice. A control group was administered with a same amount of pure water. 3 to 5 minutes after the administration, 0.25 ml of an antibiotic 88617 (M/100 PBS, pH 7.0 solutions) at 5 or 20 mg/kg-mouse were subcutaneously administered to the mice. Six hours after the administration of the antibiotic 88617, all the urines of the mice were collected and the concentrations of the antibiotic 88617 in all the collected urines were measured by disc-agar diffusion method in which Comamonas terrigena was used as test bacteria, and average values of five mice were determined.

[3] = as above; set-up: species or system ddY mice; settings: mouse, sc; control: antibiotic 88617 alone, 20 mg/kg subcutaneous; urine collected 6 hours; average of five mice; read-out: Recovery ratio of antibiotic 88617 in urine
Method: as §1

T1 sequence (P31430 17-410): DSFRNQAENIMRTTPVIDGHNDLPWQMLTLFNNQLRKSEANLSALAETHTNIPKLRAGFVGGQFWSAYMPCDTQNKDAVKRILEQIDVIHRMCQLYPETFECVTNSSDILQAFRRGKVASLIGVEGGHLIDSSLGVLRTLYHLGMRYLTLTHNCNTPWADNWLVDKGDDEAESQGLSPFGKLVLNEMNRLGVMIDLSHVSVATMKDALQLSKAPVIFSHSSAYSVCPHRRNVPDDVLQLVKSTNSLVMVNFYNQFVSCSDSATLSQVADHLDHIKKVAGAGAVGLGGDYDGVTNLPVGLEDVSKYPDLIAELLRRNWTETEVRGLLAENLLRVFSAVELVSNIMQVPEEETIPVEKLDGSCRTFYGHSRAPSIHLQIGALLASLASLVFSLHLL

| IC50 (dipeptidase [1]) [µM] | dose excreted at 6 h [3] [%] | SMILES | Recovery ratio of antibiotic 88617 in urine when dipeptidase-inhibiting agent was co-administered (dipeptidase [2]; inhibitor 50 mg/kg intravenous in combination with antibiotic 88617 20 mg/kg subcutaneous) [%] | Recovery ratio of antibiotic 88617 in urine when dipeptidase-inhibiting agent was co-administered (dipeptidase [2]; inhibitor 250 mg/kg intravenous in combination with antibiotic 88617 20 mg/kg subcutaneous) [%] |
| --- | --- | --- | --- | --- |
| 480 |  | O=C(O)[C@H](CSCCN1C(=O)c2ccccc2C1=O)N1C(=O)c2ccccc2C1=O [Compound No. 2, S-(2-phthalimidethyl)-N-phthaloyl-L-cysteine] |  |  |
| 210 |  | O=C(NCCSC[C@H](NC(=O)c1ccccc1)C(=O)O)c1ccccc1 [Compound No. 1, N-benzoyl-S-(2-benzoylaminoethyl)-L-cysteine] | 38.0 | 57.2 |
|  | 27.5 | CN=C(CSC1=C(C(=O)O)N2C(=O)C(C(C)F)C2C1)N(C)C (centres unmarked) [Antibiotic 88617, reference compound] |  |  |
